Data set [1] concerns PTH secretion. The experiment in a line: PTH secretagogue action, oral administration to fasted male SD rats, serum PTH by ELISA. It counts as in vivo, rat. The following applies: 3 mg/kg oral, test compound administration group. The protocol:
The test compound was orally administered to 5 to 9-week-old male SD rats (Charles River Japan, Inc.) fasted for 20 hr, using a solvent (0.5% aqueous methyl cellulose solution) at a dose of 3 mg/5 ml/kg or 30 mg/5 ml/kg. A solvent alone was orally administered to the control group at a dose of 5 ml/kg. The blood was drawn from the tail vein 15 min, 30 min, 60 min and 120 min after the administration of the test compound, and serum was obtained. The serum PTH concentration was measured using rat PTH ELISA kit (Amersham Biosciences).

The target of data set [2] is T1, human calcium receptor (Homo sapiens, UniProt P41180).
T1 construct: expressed in transfected cells; host or cells: cell strain derived from rat adrenal, co-transfected with luciferase cDNA
T1 sequence (P41180 20-1078): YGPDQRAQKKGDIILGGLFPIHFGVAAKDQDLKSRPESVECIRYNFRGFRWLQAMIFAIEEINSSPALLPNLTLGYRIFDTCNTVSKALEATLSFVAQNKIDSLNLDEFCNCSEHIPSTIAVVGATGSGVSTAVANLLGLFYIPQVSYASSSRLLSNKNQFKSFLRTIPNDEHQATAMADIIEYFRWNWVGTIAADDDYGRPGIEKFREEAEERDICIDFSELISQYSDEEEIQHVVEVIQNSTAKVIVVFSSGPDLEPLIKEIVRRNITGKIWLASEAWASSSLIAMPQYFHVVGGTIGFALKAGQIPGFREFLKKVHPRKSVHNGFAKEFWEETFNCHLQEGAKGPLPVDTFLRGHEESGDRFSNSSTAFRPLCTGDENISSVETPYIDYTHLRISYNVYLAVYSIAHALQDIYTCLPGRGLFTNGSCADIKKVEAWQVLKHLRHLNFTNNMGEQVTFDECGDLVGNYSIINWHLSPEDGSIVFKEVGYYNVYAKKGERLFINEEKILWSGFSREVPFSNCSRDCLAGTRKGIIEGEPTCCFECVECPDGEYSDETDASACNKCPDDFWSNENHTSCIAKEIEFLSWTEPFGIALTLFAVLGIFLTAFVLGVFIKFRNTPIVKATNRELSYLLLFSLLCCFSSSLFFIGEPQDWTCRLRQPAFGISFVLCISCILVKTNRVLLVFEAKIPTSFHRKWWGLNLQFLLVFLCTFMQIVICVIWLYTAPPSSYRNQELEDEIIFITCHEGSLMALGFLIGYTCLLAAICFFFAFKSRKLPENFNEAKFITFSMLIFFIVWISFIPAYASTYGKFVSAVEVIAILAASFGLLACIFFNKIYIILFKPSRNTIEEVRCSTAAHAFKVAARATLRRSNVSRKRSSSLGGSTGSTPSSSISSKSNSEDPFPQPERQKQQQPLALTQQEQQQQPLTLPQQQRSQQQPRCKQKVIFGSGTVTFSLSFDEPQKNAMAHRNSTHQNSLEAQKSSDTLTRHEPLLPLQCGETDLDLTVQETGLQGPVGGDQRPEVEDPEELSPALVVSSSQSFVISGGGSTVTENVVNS
The experiment in a line: Evaluation of antagonistic action on calcium receptor using reporter gene (luciferase). It counts as cell-based. The following applies: rat adrenal derived cells with luciferase and human calcium receptor cDNA, 5 mM calcium chloride, 4 hrs; read-out: IC50 (concentration showing 50% inhibitory rate of luciferase activity). On the procedure: Evaluation of Antagonistic Action on Calcium Receptor Using Reporter Gene
Luciferase cDNA and human calcium receptor cDNA were introduced into a cell strain derived from rat adrenal to transform the cells, and the transformed cells were cultured in a medium (80 μl, F12 medium containing 0.5% dialyzed horse serum and 0.25% dialyzed bovine fetal serum). A dimethyl sulfoxide solution containing a test compound at 0.1-10000 μM was diluted 100-fold with the medium and added to the test compound group at 10 μl per well (final concentration of dimethyl sulfoxide is 0.1%). In the same manner as in test compound group, dimethyl sulfoxide diluted 100-fold with medium was added to a control group and a blank group. Then, 50 mM calcium chloride-containing medium was added to every well except the blank group at 10 μl per well (final concentration is 5 mM). A medium alone was added to the blank group. After culture for 4 hrs, luciferase substrate was added and the luciferase activity was measured with a photoluminometer. The inhibitory rate (%) was calculated from the obtained measured values according to the following formula.
Based on the results, the concentration (IC50) showing 50% inhibitory rate was determined.

Data set [3] addresses T2, CYP2D6 (Homo sapiens, UniProt P10635).
T2 construct: purchased BD Bioscience
Kind of data set: Metabolic enzyme CYP2D6 inhibitory activity (BD Bioscience kit). It counts as in vitro ADME. To be noted: enzyme activity free of test compound as 100%; read-out: CYP2D6 IC50 (concentration showing 50% inhibition). The protocol:
Metabolic Enzyme CYP2D6 Inhibitory Activity
Using a metabolic enzyme CYP2D6 inhibition measurement kit (BD Bioscience) and following the manual of the kit, the inhibitory activity of the test compound was measured. With the enzyme activity free of the test compound as 100%, the concentration (IC50) showing 50% inhibition was determined. The results are shown in Table 8, wherein “>10” means over 10 μM.

The subject of data set [4] is PTH release. To be noted: cited from earlier work.
In data set [5] the test system is PTH secretion. The experiment in a line: Reproductive test of NPS-2143 of the reference (PTH secretion). It counts as in vivo.
For data set [6], the system named is osteoblast and osteoclast. To be noted: in vitro; cited from earlier work.

T2 sequence (P10635 whole entry): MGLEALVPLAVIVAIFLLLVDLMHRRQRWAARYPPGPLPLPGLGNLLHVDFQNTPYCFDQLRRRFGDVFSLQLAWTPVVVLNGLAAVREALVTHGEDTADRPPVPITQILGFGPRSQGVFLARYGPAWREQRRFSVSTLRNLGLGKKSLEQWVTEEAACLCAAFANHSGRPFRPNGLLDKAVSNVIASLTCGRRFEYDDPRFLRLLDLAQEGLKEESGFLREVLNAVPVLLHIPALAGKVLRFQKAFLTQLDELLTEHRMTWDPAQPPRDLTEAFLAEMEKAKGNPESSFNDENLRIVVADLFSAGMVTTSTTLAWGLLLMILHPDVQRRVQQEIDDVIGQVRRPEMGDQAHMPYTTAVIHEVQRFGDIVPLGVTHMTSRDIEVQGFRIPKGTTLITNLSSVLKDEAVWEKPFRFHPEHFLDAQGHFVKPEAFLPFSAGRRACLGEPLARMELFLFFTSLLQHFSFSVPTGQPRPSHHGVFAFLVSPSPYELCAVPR

Take `C[C@@H](OC[C@H](O)CNC(C)(C)Cc1ccc2ccccc2c1)c1ccccc1CCC(=O)O` [Example 1, 3-[2-[(1R)-1-[(2R)-2-hydroxy-3-[[2-methyl-1-(naphthalen-2-yl)propan-2-yl]amino]propoxy]ethyl]phenyl]propionic acid]: in data set [1], the “serum PTH concentration 15 min later” value was 24.86 ± 3.59 pg/mL. The “serum PTH concentration 30 min later” value in data set [1] is 18.58 ± 2.15 pg/mL. In addition, the IC50 in data set [2] was found to be 25 nM; in data set [3], 9.5 µM.

Consider `C[C@@H](OC[C@H](O)CNC(C)(C)Cc1ccc2ccccc2c1)c1ccccc1-c1ccc(P(=O)(O)O)cc1` [Example 12, Disodium [2′-[(1R)-1-[(2R)-2-hydroxy-3-[[2-methyl-1-(naphthalen-2-yl)propan-2-yl]amino]propoxy]ethyl]biphenyl-4-yl]phosphonate], for which the values for the IC50 in data set [2] and in data set [3] were 29 nM and over 10 µM, respectively.

With `CC(OC[C@H](O)CNC(C)(C)Cc1ccc2ccccc2c1)c1ccccc1-c1ccc(C(=O)NS(C)(=O)=O)cc1` (stereo partly shown) [Example 18], the IC50 in data set [2] was 22 nM; in data set [3], 8 µM.

With `CC(C)(Cc1ccc2ccccc2c1)NC[C@@H](O)COc1cccc(Cl)c1C#N` [NPS-2143], in data set [4] (100 μmol/kg, OVX rat), the “blood concentration of NPS-2143 8 hours after the administration” value was “not less than 100 ng/ml” and the “blood concentration of NPS-2143 24 hours later” value is at most 10 ng/mL. In addition, in data set [4] (NPS-2143 100 μmol/kg, OVX rat), the “blood PTH concentration 4 hours later” value is listed as “about 140 pg/ml” and the “blood PTH concentration in 30 minutes” value was “about 115 pg/ml”. In data set [4] (oral, OVX rats), the “bone decrease or bone increase” value is listed as “free of bone decrease or bone increase” and the “release of PTH” value was “significantly promotes release of PTH”. The “PTH secretion promoting action (duration)” value in data set [5] is given as “sustained PTH secretion promoting action”. In data set [6], the “direct effect on osteoblast and osteoclast” value is “did not show any direct effect”.
